Laboratory results published in patent US11051777B2, “Imaging neurological disease” (GE Healthcare Limited, priority 2013, dated 2021).
“And” between values parts separate entries of the source, which are not always exact repeats. Equal values may be shown once.

Assays:
Type in all cases: in vivo
dopamine transporter [1] = molecular target: T1, dopamine transporter (Homo sapiens, UniProt Q01959); experiment: Striatal binding ratio (SBR) from DaTSCAN images of normal subjects, ENCDAT database; conditions: mean ±1 SD
T1 construct: from tissue; host or cells: striatum of living normal human subjects (in vivo SPECT imaging, ENCDAT and PPMI databases)
Description: The European Association of Nuclear Medicine RESEARCH4LIFE© initiative (“EARL”) has been compiling a database of DaTSCAN images of normal human subjects since 2007 (see http://earl.eanm.org/cms/website.php?id=/en/projects/enc-dat.htm). The ENCDAT database includes 150 normal subjects—with data from a range of camera types. SBR was calculated for the 150 normal subjects (Group A):
[formula] • where: • SBR=specific binding ratio or striatum binding ratio, • ROI=region of interest. Brain imaging data for n=37 normal subjects acquired on GE cameras in the ENCDAT database was used for the calculation of SBR (Group B). SBR for an illustrative patient from the ENCDAT database is also shown: […]

dopamine transporter [2] = molecular target: T1, dopamine transporter; experiment: Striatum right:left ratio from DaTSCAN SBR data of normal subjects, ENCDAT database
Text: Using the method of the present invention, the data from Example 1 was used to calculate a striatum right:left ratio:
Table 3 below uses SBR data for normal subjects from the ENC DAT database. Three subjects from each of five different sites are shown, but the overall average is based on data from 11 sites: […]

dopamine transporter [3] = molecular target: T1, dopamine transporter; experiment: Normal database (PPMI, ENCDAT) DaTSCAN scans, SBR method averaged per decade of life; conditions: normal subjects
Description: Two databases of scans of DaTSCAN™ (GE Healthcare Ltd) normal human subjects were evaluated using: • (i) the SBR method of the prior art (see Example 1), with the occipital cortex as the reference region; • (ii) the L/R ratio method of the present invention. The PPMI database was of 122 subjects (age range 31-84; 62% male 38% female). The ENCDAT database was of 122 subjects (age range 20-82; 52% male 48% female). The data from all subjects in each decade of life (20 s, 30 s etc) were averaged.

dopamine transporter [4] = molecular target: T1, dopamine transporter; experiment: Patient classification from Datscan clinical trial data using SBR only, versus clinical diagnosis
Description: The data from two GE Healthcare Ltd clinical trials of Datscan™: • (i) comparing PD and ET; • (ii) clinically uncertain PD; 104 patients in total were analysed using SBR calculation only. Each determination was compared with the patient determination based on clinical symptoms.
This gives a sensitivity of 71%, specificity of 96% and accuracy of 82% for the SBR technique. The clinical diagnosis was assumed to be the ‘true’ diagnosis, and sensitivity and specificity can then be calculated. Sensitivity=100×True Positives/(True Positives+False Negatives)=100×42/59=71%. Specificity=100×True Negatives/(True Negatives+False Positives)=100×43/45=96%. Accuracy=100×(True Positives+True Negatives)/Population=100×(42+43)/104=82%.

dopamine transporter [5] = molecular target: T1, dopamine transporter; experiment: Patient classification from Datscan clinical trial data using SBR plus L/R asymmetry, versus clinical diagnosis
Description: The 104 patient data set from Example 4 was analysed using SBR together with the L/R asymmetry of the present invention.

[6] = Normal A: 150 normal subjects, range of camera types
[7] = Normal B: n=37 normal subjects, GE cameras
[8] = WHOLE mean, overall average of 11 sites
[9] = individual normal subjects, three per site, sites 1-5
[10] = SBR technique, clinical diagnosis as truth
[11] = 104 patients, SBR with L/R asymmetry
[12] = SBR plus asymmetry, clinical diagnosis as truth

T1 sequence (Q01959 whole entry): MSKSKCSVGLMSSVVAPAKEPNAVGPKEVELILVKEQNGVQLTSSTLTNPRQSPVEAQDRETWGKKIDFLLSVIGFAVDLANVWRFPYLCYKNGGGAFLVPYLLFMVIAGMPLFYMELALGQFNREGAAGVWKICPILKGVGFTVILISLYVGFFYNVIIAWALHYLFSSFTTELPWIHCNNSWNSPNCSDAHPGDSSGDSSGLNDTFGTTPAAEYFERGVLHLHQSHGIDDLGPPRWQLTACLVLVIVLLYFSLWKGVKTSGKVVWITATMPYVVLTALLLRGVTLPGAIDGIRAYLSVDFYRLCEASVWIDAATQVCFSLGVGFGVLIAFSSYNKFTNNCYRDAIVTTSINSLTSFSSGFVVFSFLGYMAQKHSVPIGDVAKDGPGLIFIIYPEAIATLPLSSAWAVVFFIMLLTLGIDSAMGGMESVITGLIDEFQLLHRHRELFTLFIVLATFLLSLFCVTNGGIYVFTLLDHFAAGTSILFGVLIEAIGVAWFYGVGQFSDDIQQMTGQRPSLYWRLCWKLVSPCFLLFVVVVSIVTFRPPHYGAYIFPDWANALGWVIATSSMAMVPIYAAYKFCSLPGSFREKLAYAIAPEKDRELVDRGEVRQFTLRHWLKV

COC(=O)[C@H]1[C@@H](c2ccc([123I])cc2)C[C@@H]2CC[C@H]1N2CCCF [DaTSCAN, ^123I-ioflupane]
SBR Striatum left (dopamine transporter [1]; [6]): 2.88 ± 0.69 and 2.88 +/− 0.69 | SBR Striatum right (dopamine transporter [1]; [6]): 2.88 ± 0.65 and 2.88 +/− 0.65 | SBR Striatum left (dopamine transporter [1]; [7]): 2.42 +/− 0.63 | SBR Striatum right (dopamine transporter [1]; [7]): 2.41 +/− 0.63 | SBR left, normal range (dopamine transporter [2]; Normal range (+/-1 SD)): 1.79-3.05 | SBR right, normal range (dopamine transporter [2]; Normal range (+/-1 SD)): 1.78-3.04 | Striatum Right:left, normal range (dopamine transporter [2]; Normal range (+/-1 SD)): 0.96-1.04 | Striatum Right:left (dopamine transporter [2]; Normal subjects, mean +/-1 SD): 1.00 +/− 0.04 | Anterior putamen R:L ratio (dopamine transporter [2]; [8]): 1.00 | Caudate R:L ratio (dopamine transporter [2]; [8]): 0.99 | Posterior Putamen R:L ratio (dopamine transporter [2]; [8]): 1.01 | Putamen R:L ratio (dopamine transporter [2]; [8]): 1.01 | SBR Striatum L (dopamine transporter [2]; [8]): 2.88 | SBR Striatum R (dopamine transporter [2]; [8]): 2.88 | Striatum R:L ratio (dopamine transporter [2]; [8]): 1.00 | Anterior putamen R:L ratio (dopamine transporter [2]; [9]): 1.03 (2×) and 1.00 (4×) and 0.91 and 0.98 and 0.97 and 1.01 (3×) and 1.06 and 0.99 and 0.96 | Caudate R:L ratio (dopamine transporter [2]; [9]): 0.98 and 1.02 and 0.97 and 1.05 (3×) and 0.89 and 1.03 (3×) and 1.15 and 1.11 and 1.07 and 0.94 and 1.01 | Posterior Putamen R:L ratio (dopamine transporter [2]; [9]): 1.03 and 1.08 and 1.18 (2×) and 1.00 and 1.05 and 0.99 and 1.20 and 1.07 (3×) and 1.02 and 1.11 (2×) and 0.93 | Putamen R:L ratio (dopamine transporter [2]; [9]): 1.03 (2×) and 1.02 and 1.04 (2×) and 1.05 (2×) and 0.93 and 1.00 (3×) and 0.98 and 1.06 and 1.07 and 0.99 | SBR Striatum L (dopamine transporter [2]; [9]): 3.25 and 2.58 and 3.11 and 2.60 and 2.94 and 1.88 and 4.03 and 2.33 and 3.28 and 2.62 and 2.37 and 2.50 and 4.79 and 3.22 and 3.09 | SBR Striatum R (dopamine transporter [2]; [9]): 3.29 and 2.65 and 3.16 and 2.74 and 2.69 and 1.91 and 4.06 and 2.56 and 3.57 and 2.70 and 2.37 and 2.62 and 4.93 and 3.23 and 3.15 | Striatum R:L ratio (dopamine transporter [2]; [9]): 1.01 (2×) and 1.03 (3×) and 1.02 (3×) and 1.05 (2×) and 0.92 and 1.10 and 1.09 and 1.00 (2×) | SBR (dopamine transporter [3]; eighties age group): about 2.2 | SBR (dopamine transporter [3]; thirties age group): about 3.2 | number of subjects: SBR Abnormal, Clinical Abnormal (dopamine transporter [4]; 104 patients, SBR only): 42 | number of subjects: SBR Abnormal, Clinical Normal (dopamine transporter [4]; 104 patients, SBR only): 2 | number of subjects: SBR Normal, Clinical Abnormal (dopamine transporter [4]; 104 patients, SBR only): 17 | number of subjects: SBR Normal, Clinical Normal (dopamine transporter [4]; 104 patients, SBR only): 43 | accuracy (dopamine transporter [4]; [10]): 82% | sensitivity (dopamine transporter [4]; [10]): 71% | specificity (dopamine transporter [4]; [10]): 96% | number of subjects: SBR + Asymmetry Abnormal, Clinical Abnormal (dopamine transporter [5]; [11]): 54 | number of subjects: SBR + Asymmetry Abnormal, Clinical Normal (dopamine transporter [5]; [11]): 11 | number of subjects: SBR + Asymmetry Normal, Clinical Abnormal (dopamine transporter [5]; [11]): 5 | number of subjects: SBR + Asymmetry Normal, Clinical Normal (dopamine transporter [5]; [11]): 34 | accuracy (dopamine transporter [5]; [12]): 85% | sensitivity (dopamine transporter [5]; [12]): 92% | specificity (dopamine transporter [5]; [12]): 76%
